The values that follow come from patent US20120003655A1, “IDENTIFICATION OF NEUROPROTECTIVE AGENTS USING PRO-INFLAMMATORY HUMAN GLIAL CELLS” (The Salk Institute for Biological Studies, priority 2008, published 2012).

Experiment [1] relates to interaction of Nurr1 and p65. The experiment is described as follows: Co-immunoprecipitation of Nurr1 and p65 in LPS-stimulated BV2 cells. Type of experiment: cell-based, mouse. As to conditions: SB21 1 h prior to LPS (1 μg/ml), co-IP and Western blot. As to the method:
(§1) FIGS. 12A-I show Nurr1 acting as an RXR-independent, GSK3β-dependent transrepressor for NF-κB. (FIG. 12A) Nurr1 is recruited to the TNFα-promoter in response to LPS. This recruitment is blocked by the GSK3β-specific inhibitor SB216763 (SB21). BV2 cells were pre-incubated with DMSO or 30 μM SB21 for 1 h followed by LPS stimulation for the indicated times before ChIP assay. […] (FIG. 12B) Nurr1-mediated repression is independent of DNA binding and RXR dimerization. RAW264.7 cells were transfected with wild type Nurr1, P-box mutant Nurr1C280A/E281A (CEAA) and I-box mutant Nurr1K555A/L556A/L227A (KLL). iNOS-promoter activity in RAW264.7 cells measured by luciferase-reporter assay. *, p<0.01 compared to control (Mock). (FIG. 12C) siRNA against Ubc9 abolishes Nurr1-mediated transrepression of iNOS-promoter activity. *, p<0.01 compared to Nurr1 with control siRNA. (FIG. 12D) K558 and K576 are the predominant SUMOylation sites of Nurr1. […] Equal loading was determined by re-blotting using anti-Nurr1 antibody. […] Nurr1 expression vector was transfected into RAW264.7 cells together with control siRNA or siRNA against GSK3β and iNOS-promoter activity was determined as described before. *, p<0.01 compared to Nurr1 with control siRNA. (FIG. 12I) S468A mutant of p65 abolishes Nurr1-mediated repression of iNOS-promoter activity. iNOS-promoter activity was determined as described before. […]
Background: Immunoblotting shows a protein as a band on a membrane.

Experiment [2] deals with recruitment of Nurr1 to the TNFα-promoter. The experiment is described as follows: ChIP assay, Nurr1 recruitment to TNFα-promoter in BV2 cells. Type of experiment: cell-based, mouse. As to conditions: 30 μM SB21 for 1 h followed by LPS. On the procedure: as §1, with “(Mock).” for “(Mock). (FIG. 12C) siRNA against Ubc9 abolishes Nurr1-mediated transrepression of iNOS-promoter activity. *, p<0.01 compared to Nurr1 with control siRNA. (FIG. 12D) K558 and K576 are the predominant SUMOylation sites of Nurr1.”
(§2) ChIP assay. […] Quantitative PCR (qPCR) was performed with SYBR-GREEN PCR master Mix (ABI) or SYBR-GreenER (Invitrogen) and analyzed on a 7200 real time PCR system (ABI).

Experiment [3] concerns recruitment of Nurr1 at iNOS-promoter. As to the kind of experiment: ChIP assay, Nurr1 recruitment to iNOS-promoter in mouse primary astrocytes. Type of experiment: cell-based. As to conditions: SB21 pre-incubation, IL1β stimulation. On the procedure:
FIGS. 15A-I show the CoREST complex requirement for Nurr1-mediated repression in astrocytes. (FIG. 15A) IL1β stimulation enhances physical association of Nurr1 and p65 in mouse primary astrocytes. Lysates of astrocytes stimulated with IL1β (10 ng/ml) for the indicated times were immunoprecipitated with anti-Nurr1 antibody and Western blots were developed with anti-p65 antibody. Equal loading was determined as described in FIG. 12F. (FIG. 15B) Recruitment of Nurr1 and p65 to iNOS-promoter in mouse primary astrocyte shown by ChIP assay. Data represent fold enrichment of iNOS-promoter precipitated with the indicated antibodies compared to control IgG as determined by qPCR. […] Mouse primary astrocytes were treated with SB21 as described in FIG. 12A. Data represent fold enrichment of iNOS-promoter precipitated with antibody against Nurr1 compared to control IgG as determined by qPCR. […] Data represent fold enrichment of iNOS-promoter precipitated with the indicated antibodies compared to control IgG as determined by qPCR. […] Cells were stimulated with 10 ng/ml IL1β for 6 h and mRNA expression of iNOS (FIG. 15F), CSF1 (FIG. 15G) and Ncf1 (FIG. 15H) was determined by qPCR. […]
as §2

In another experiment the test system is ALS. As to conditions: ALS patients; cited from earlier work.
Experiment [4] addresses T1, Nurr1 (NR4A2), endogenous protein in mouse cells (mouse, UniProt Q06219 1-598).
T1 construct: Endogenous protein, immunoprecipitated or blotted with anti-Nurr1 (E-20, Santa Cruz)
As to the kind of experiment: co-IP from BV2 lysates, anti-Nurr1 IP, anti-p65 Western blot (FIG. 12F). As to the method:
Lysates of BV2 cells stimulated with LPS (1 μg/ml) for the indicated times were immunoprecipitated with anti-Nurr1 antibody and Western blots were developed with anti-p65 antibody. Equal loading was determined by re-blotting using anti-Nurr1 antibody. (FIG. 12G) SB21 impairs the binding of Nurr1 and p65 in a dose-dependent manner. BV2 cells were incubated with SB21 at the indicated concentrations for 1 h prior to stimulation with LPS (1 μg/ml). IP and Western blotting were performed as described in FIG. 12F. (FIG. 12H) siRNA against GSK3β abolishes Nurr1-mediated repression of iNOS-promoter activity. Nurr1 expression vector was transfected into RAW264.7 cells together with control siRNA or siRNA against GSK3β and iNOS-promoter activity was determined as described before. *, p<0.01 compared to Nurr1 with control siRNA. (FIG. 12I) S468A mutant of p65 abolishes Nurr1-mediated repression of iNOS-promoter activity. iNOS-promoter activity was determined as described before.
Co-immunoprecipitations and Western blotting. Hela cells or NIH3T3 cells were transfected using Lipofectamine 2000 reagent (Invitrogen) following manufacturer's protocol. Transfected cells were stimulated by 10 ng/ml recombinant human or mouse mIL1β (R & D system) for the indicated times prior to harvesting. […]

T1 sequence (Q06219 whole entry): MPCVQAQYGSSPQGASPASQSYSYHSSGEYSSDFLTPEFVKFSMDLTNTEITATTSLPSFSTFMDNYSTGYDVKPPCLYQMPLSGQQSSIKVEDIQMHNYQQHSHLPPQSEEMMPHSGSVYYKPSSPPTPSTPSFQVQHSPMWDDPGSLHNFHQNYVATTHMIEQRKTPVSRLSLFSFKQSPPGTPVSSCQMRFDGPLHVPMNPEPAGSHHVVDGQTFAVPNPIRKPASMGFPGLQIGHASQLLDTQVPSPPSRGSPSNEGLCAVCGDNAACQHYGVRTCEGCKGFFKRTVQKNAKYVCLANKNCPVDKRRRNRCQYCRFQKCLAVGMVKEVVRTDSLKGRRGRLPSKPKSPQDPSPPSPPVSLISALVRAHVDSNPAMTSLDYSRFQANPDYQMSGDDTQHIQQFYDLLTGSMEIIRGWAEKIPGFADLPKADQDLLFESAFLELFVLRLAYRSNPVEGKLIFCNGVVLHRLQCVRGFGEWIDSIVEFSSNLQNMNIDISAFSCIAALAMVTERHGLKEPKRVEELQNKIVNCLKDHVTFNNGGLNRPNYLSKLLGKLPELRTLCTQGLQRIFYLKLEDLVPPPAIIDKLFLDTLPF

`Cn1cc(C2=C(c3ccc(Cl)cc3Cl)C(=O)NC2=O)c2ccccc21` [SB216763]: the “interaction (binding) of Nurr1 and p65” value in experiment [1] is “inhibited the interaction of Nurr1 and p65 in BV2 cells in a dose-dependent manner”; in experiment [1] (listed as SB21), “impairs the binding of Nurr1 and p65 in a dose-dependent manner”. The “recruitment of Nurr1 to the TNFα-promoter” value was “blocked” in experiment [2] and “prevented the recruitment of Nurr1 to the TNFα-promoter” in experiment [2] (listed as SB21). Further, the “recruitment of Nurr1 at iNOS-promoter” value in experiment [3] is given as “Altered recruitment of Nurr1 to iNOS-promoter”; in experiment [3] (listed as SB21), “decreases the recruitment of Nurr1 at iNOS-promoter”.

As to `Nc1nc2ccc(OC(F)(F)F)cc2s1` [riluzole], the “extension of the course of the disease” value with ALS is 2 months.

B1: NF-κB-p65, endogenous protein in mouse cells (other, UniProt Q04207 1-549, looked up)
chain: MDDLFPLIFPSEPAQASGPYVEIIEQPKQRGMRFRYKCEGRSAGSIPGERSTDTTKTHPTIKINGYTGPGTVRISLVTKDPPHRPHPHELVGKDCRDGYYEADLCPDRSIHSFQNLGIQCVKKRDLEQAISQRIQTNNNPFHVPIEEQRGDYDLNAVRLCFQVTVRDPAGRPLLLTPVLSHPIFDNRAPNTAELKICRVNRNSGSCLGGDEIFLLCDKVQKEDIEVYFTGPGWEARGSFSQADVHRQVAIVFRTPPYADPSLQAPVRVSMQLRRPSDRELSEPMEFQYLPDTDDRHRIEEKRKRTYETFKSIMKKSPFNGPTEPRPPTRRIAVPTRNSTSVPKPAPQPYTFPASLSTINFDEFSPMLLPSGQISNQALALAPSSAPVLAQTMVPSSAMVPLAQPPAPAPVLTPGPPQSLSAPVPKSTQAGEGTLSEALLHLQFDADEDLGALLGNSTDPGVFTDLASVDNSEFQQLLNQGVSMSHSTAEPMLMEYPEAITRLVTGSQRPPDPAPTPLGTSGLPNGLSGDEDFSSIADMDFSALLSQISS
notes: Endogenous protein, detected with anti-p65 (C-20, Santa Cruz)
On to B1, for which the binding result in experiment [4] is “binds”.
